In patent US6737039B2, “Methods for detecting lesions in dense breast tissue using LHRH antagonists” (Praecis Pharmaceutics, Inc., priority 1998, dated 2004):
Non-standard residues stand in square brackets, D forms with d. Residues, ends and D or L forms follow the SMILES beside them. dPhe(4-Cl) = N[C@H](Cc1ccc(Cl)cc1)C(=O)O; d2Nal = N[C@H](Cc1ccc2ccccc2c1)C(=O)O; Lys(iPr) = CC(C)NCCCC[C@H](N)C(=O)O; NMeY = CN[C@@H](Cc1ccc(O)cc1)C(=O)O; d3Pal = N[C@H](Cc1cccnc1)C(=O)O

Key:
[1] = test system: plasma testosterone levels; assay: single dose in male rats, plasma testosterone; assay type: in vivo
Description: (§1) Moreover, upon administration, PPI-149 rapidly reduces sex hormone levels to castrate levels. […] Testosterone levels returned to normal by 24 hours after the 300 μg/kg dose, but not until 72 hours after the 1000 μg/kg dose.

[2] = test system: plasma testosterone levels; assay: eight intravenous doses every three hours, plasma testosterone; assay type: in vivo, rats
Description: as §1

testosterone levels = assay: continuous subcutaneous infusion via osmotic pump, testosterone; assay type: in vivo, rats
Description: as §1

Description for histamine release: Histamine-releasing activity of an LHRH antagonist can be assayed by the method described in U.S. Pat. No. 4,851,385 to Roeske.

SMILES: CC(=O)N[C@H](Cc1ccc2ccccc2c1)C(=O)N[C@H](Cc1ccc(Cl)cc1)C(=O)N[C@H](Cc1cccnc1)C(=O)N[C@@H](CO)C(=O)N(C)[C@@H](Cc1ccc(O)cc1)C(=O)N[C@H](CC(N)=O)C(=O)N[C@@H](CC(C)C)C(=O)N[C@@H](CCCCNC(C)C)C(=O)N1CCC[C@H]1C(=O)N[C@H](C)C(N)=O [PPI-149, Ac-D-Nal^1,4-Cl-D-Phe^2, D-Pal^3, N—Me-Tyr^5, D-Asn^6, Lys(iPr)^8, D-Ala^10-LHRH] (Ac-[d2Nal][dPhe(4-Cl)][d3Pal]S[NMeY][dN]L[Lys(iPr)]P[dA]-NH2)
- time for testosterone levels to return to normal ([1]; single dose 300 μg/kg): ≤ 24 h
- time for testosterone levels to return to normal ([1]; single dose 1000 μg/kg): 72 h
- plasma testosterone levels ([1]; single dose 300 or 1000 μg/kg, by 6 hours post-administration): decreased to nearly undetectable levels
- plasma testosterone levels ([2]; eight intravenous doses of 1 μg/kg every three hours (8 μg/kg/day)): significant decrease
- testosterone levels ([2]; eight intravenous doses of 10 μg/kg every three hours (80 μg/kg/day)): castrate levels of testosterone were achieved
- recovery of testosterone levels following pump removal (testosterone levels; after four weeks of continuous subcutaneous infusion): complete within two weeks
- time castration level was maintained by subsequent low doses (testosterone levels; after the high dose, 5, 15 or 50 μg/kg/day by continuous subcutaneous infusion): 21 days
- time to castrate levels of testosterone (testosterone levels; continuous subcutaneous infusion, 300 or 1000 μg/kg/day for two weeks): ≤ 7 days
- histamine releasing activity (histamine release): low
